Test system: cell lines from the Cancer Cell Line Encyclopedia (CCLE)
Test: High-throughput cell viability assay, CCLE cell line panel (n = 356)
Type: cell-based, human
Protocol: Cell lines were partitioned into sensitive and insensitive groups based on compound potency (IC50). […] All other cell lines were obtained from ATCC (American Type Culture Collection), DSMZ (Deutsche Sammlung von Mikroorganismen und Zellkulturen), and HSRRB (Health Science Research Resources Bank) and cultured in RPMI or Dulbecco's modified Eagle's medium plus 10% FBS (Invitrogen, Carlsbad, CA) at 37°C, 5% CO2.

[1] = PE/CA-PJ34 (clone C12), TP53 MUT
[2] = cell line A172, central_nervous_system, TP53 WT
[3] = cell line BICR 31, upper_aerodigestive_tract, TP53 MUT
[4] = cell line CAL-85-1, breast, TP53 MUT
[5] = cell line CAMA-1, breast, TP53 MUT
[6] = cell line CCK-81, large_intestine, TP53 MUT
[7] = cell line COV504, ovary, TP53 MUT
[8] = cell line Capan-2, pancreas, TP53 WT
[9] = cell line ES-2, ovary, TP53 MUT
[10] = cell line ESS-1, endometrium, TP53 MUT
[11] = cell line HEC-108, endometrium, TP53 MUT
[12] = cell line HEC-265, endometrium, TP53 WT
[13] = cell line HSC-2, upper_aerodigestive_tract, TP53 MUT
[14] = cell line Hs 618.T, lung, TP53 WT
[15] = cell line Hs 888.T, bone, TP53 WT
[16] = cell line Hs 944.T, skin, TP53 WT
[17] = cell line IM95, stomach, TP53 WT

COc1cc2c(cc1OC(C)C)[C@H](c1ccc(Cl)cc1)N(c1ccc(N(C)C[C@H]3CC[C@H](N4CCNC(=O)C4)CC3)cc1)C(=O)C2 [NVP-CFC218]
Amax (ONS-76, TP53 WT): -16.12% | sensitivity call (ONS-76, TP53 WT): insensitive (Sensitivity call for each compound was applied according to a cut-off of 4 µM for IC50 and -50% for Amax) | Amax (OV-90, TP53 MUT): -1.39% | sensitivity call (OV-90, TP53 MUT): insensitive (Sensitivity call for each compound was applied according to a cut-off of 4 µM for IC50 and -50% for Amax) | Amax (P3HR-1, TP53 MUT): -48.91% | sensitivity call (P3HR-1, TP53 MUT): insensitive (Sensitivity call for each compound was applied according to a cut-off of 4 µM for IC50 and -50% for Amax) | Amax (P31/FUJ, TP53 MUT): 4.23% | sensitivity call (P31/FUJ, TP53 MUT): insensitive (Sensitivity call for each compound was applied according to a cut-off of 4 µM for IC50 and -50% for Amax) | Amax (PA-TU-8902, TP53 MUT): 0.96% | sensitivity call (PA-TU-8902, TP53 MUT): insensitive (Sensitivity call for each compound was applied according to a cut-off of 4 µM for IC50 and -50% for Amax) | Amax [1]: 1.01% | sensitivity call [1]: insensitive (Sensitivity call for each compound was applied according to a cut-off of 4 µM for IC50 and -50% for Amax) | Amax (PK-45H, TP53 WT): -18.84% | sensitivity call (PK-45H, TP53 WT): insensitive (Sensitivity call for each compound was applied according to a cut-off of 4 µM for IC50 and -50% for Amax) | Amax (PL-21, TP53 MUT): -37.95% | sensitivity call (PL-21, TP53 MUT): insensitive (Sensitivity call for each compound was applied according to a cut-off of 4 µM for IC50 and -50% for Amax) | Amax (QGP-1, TP53 WT): 6.30% | sensitivity call (QGP-1, TP53 WT): insensitive (Sensitivity call for each compound was applied according to a cut-off of 4 µM for IC50 and -50% for Amax) | Amax (Raji, TP53 MUT): -0.41% | sensitivity call (Raji, TP53 MUT): insensitive (Sensitivity call for each compound was applied according to a cut-off of 4 µM for IC50 and -50% for Amax) | Amax (SCC-4, TP53 MUT): -11.24% | sensitivity call (SCC-4, TP53 MUT): insensitive (Sensitivity call for each compound was applied according to a cut-off of 4 µM for IC50 and -50% for Amax) | Amax (SCC-9, TP53 MUT): 10.57% | sensitivity call (SCC-9, TP53 MUT): insensitive (Sensitivity call for each compound was applied according to a cut-off of 4 µM for IC50 and -50% for Amax) | Amax (SK-N-FI, TP53 MUT): -7.80% | sensitivity call (SK-N-FI, TP53 MUT): insensitive (Sensitivity call for each compound was applied according to a cut-off of 4 µM for IC50 and -50% for Amax) | Amax (SNU-475, TP53 MUT): -7.74% | sensitivity call (SNU-475, TP53 MUT): insensitive (Sensitivity call for each compound was applied according to a cut-off of 4 µM for IC50 and -50% for Amax) | Amax (SU-DHL-8, TP53 MUT): 11.70% | sensitivity call (SU-DHL-8, TP53 MUT): insensitive (Sensitivity call for each compound was applied according to a cut-off of 4 µM for IC50 and -50% for Amax) | Amax (SW579, TP53 MUT): -2.22% | sensitivity call (SW579, TP53 MUT): insensitive (Sensitivity call for each compound was applied according to a cut-off of 4 µM for IC50 and -50% for Amax) | Amax (SW 1271, TP53 MUT): -7.26% | sensitivity call (SW 1271, TP53 MUT): insensitive (Sensitivity call for each compound was applied according to a cut-off of 4 µM for IC50 and -50% for Amax) | Amax (SW 1990, TP53 MUT): -0.73% | sensitivity call (SW 1990, TP53 MUT): insensitive (Sensitivity call for each compound was applied according to a cut-off of 4 µM for IC50 and -50% for Amax) | Amax (TE-1, TP53 MUT): -0.82% | sensitivity call (TE-1, TP53 MUT): insensitive (Sensitivity call for each compound was applied according to a cut-off of 4 µM for IC50 and -50% for Amax) | Amax (TE-5, TP53 MUT): 31.38% | sensitivity call (TE-5, TP53 MUT): insensitive (Sensitivity call for each compound was applied according to a cut-off of 4 µM for IC50 and -50% for Amax) | Amax (U-87 MG, TP53 WT): -45.86% | sensitivity call (U-87 MG, TP53 WT): insensitive (Sensitivity call for each compound was applied according to a cut-off of 4 µM for IC50 and -50% for Amax) | Amax (WM-266-4, TP53 WT): -75.96% | sensitivity call (WM-266-4, TP53 WT): sensitive (Sensitivity call for each compound was applied according to a cut-off of 4 µM for IC50 and -50% for Amax) | Amax (WM-983B, TP53 MUT): -25.79% | sensitivity call (WM-983B, TP53 MUT): insensitive (Sensitivity call for each compound was applied according to a cut-off of 4 µM for IC50 and -50% for Amax) | Amax (YKG1, TP53 MUT): -29.61% | sensitivity call (YKG1, TP53 MUT): insensitive (Sensitivity call for each compound was applied according to a cut-off of 4 µM for IC50 and -50% for Amax) | NVP- CFC218 Amax (%) [2]: -49.68% | NVP- CFC218 sensitivity call [2]: insensitive (Sensitivity call for each compound was applied according to a cut-off of 4 µM for IC50 and -50% for Amax) | NVP- CFC218 Amax (%) [3]: -33.34% | NVP- CFC218 sensitivity call [3]: insensitive (Sensitivity call for each compound was applied according to a cut-off of 4 µM for IC50 and -50% for Amax) | NVP- CFC218 Amax (%) (cell line C3A, liver, TP53 WT): -7.36% | NVP- CFC218 sensitivity call (cell line C3A, liver, TP53 WT): insensitive (Sensitivity call for each compound was applied according to a cut-off of 4 µM for IC50 and -50% for Amax) | NVP- CFC218 Amax (%) (cell line C32, skin, TP53 WT): -3.08% | NVP- CFC218 sensitivity call (cell line C32, skin, TP53 WT): insensitive (Sensitivity call for each compound was applied according to a cut-off of 4 µM for IC50 and -50% for Amax) | NVP- CFC218 Amax (%) [4]: -3.57% | NVP- CFC218 sensitivity call [4]: insensitive (Sensitivity call for each compound was applied according to a cut-off of 4 µM for IC50 and -50% for Amax) | NVP- CFC218 Amax (%) [5]: -26.17% | NVP- CFC218 sensitivity call [5]: insensitive (Sensitivity call for each compound was applied according to a cut-off of 4 µM for IC50 and -50% for Amax) | NVP- CFC218 Amax (%) [6]: 4.13% | NVP- CFC218 sensitivity call [6]: insensitive (Sensitivity call for each compound was applied according to a cut-off of 4 µM for IC50 and -50% for Amax) | NVP- CFC218 Amax (%) [7]: -21.97% | NVP- CFC218 sensitivity call [7]: insensitive (Sensitivity call for each compound was applied according to a cut-off of 4 µM for IC50 and -50% for Amax) | NVP- CFC218 Amax (%) [8]: -4.99% | NVP- CFC218 sensitivity call [8]: insensitive (Sensitivity call for each compound was applied according to a cut-off of 4 µM for IC50 and -50% for Amax) | NVP- CFC218 Amax (%) [9]: -22.65% | NVP- CFC218 sensitivity call [9]: insensitive (Sensitivity call for each compound was applied according to a cut-off of 4 µM for IC50 and -50% for Amax) | NVP- CFC218 Amax (%) [10]: 0.05% | NVP- CFC218 sensitivity call [10]: insensitive (Sensitivity call for each compound was applied according to a cut-off of 4 µM for IC50 and -50% for Amax) | NVP- CFC218 Amax (%) [11]: -7.25% | NVP- CFC218 sensitivity call [11]: insensitive (Sensitivity call for each compound was applied according to a cut-off of 4 µM for IC50 and -50% for Amax) | NVP- CFC218 Amax (%) [12]: -37.19% | NVP- CFC218 sensitivity call [12]: insensitive (Sensitivity call for each compound was applied according to a cut-off of 4 µM for IC50 and -50% for Amax) | NVP- CFC218 Amax (%) [13]: 8.13% | NVP- CFC218 sensitivity call [13]: insensitive (Sensitivity call for each compound was applied according to a cut-off of 4 µM for IC50 and -50% for Amax) | NVP- CFC218 Amax (%) [14]: -49.34% | NVP- CFC218 sensitivity call [14]: insensitive (Sensitivity call for each compound was applied according to a cut-off of 4 µM for IC50 and -50% for Amax) | NVP- CFC218 Amax (%) [15]: -45.50% | NVP- CFC218 sensitivity call [15]: insensitive (Sensitivity call for each compound was applied according to a cut-off of 4 µM for IC50 and -50% for Amax) | NVP- CFC218 Amax (%) [16]: -32.86% | NVP- CFC218 sensitivity call [16]: insensitive (Sensitivity call for each compound was applied according to a cut-off of 4 µM for IC50 and -50% for Amax) | NVP- CFC218 Amax (%) [17]: 33.79% | NVP- CFC218 sensitivity call [17]: insensitive (Sensitivity call for each compound was applied according to a cut-off of 4 µM for IC50 and -50% for Amax) | NVP- CFC218 Amax (%) (cell line JHOS-2, ovary, TP53 MUT): -32.44%

Source: publication PMC4468608, “A distinct p53 target gene set predicts for response to the selective p53–HDM2 inhibitor NVP-CGM097” (eLife, 2015)
